Results: patent US20100305120A1, “COMPOUNDS FOR TREATING MUSCULAR DYSTROPHY” (BIOMARIN IGA LIMITED, priority 2008, published 2010)

Tested on: Utrophin A promoter linked to a luciferase reporter gene
Assay: Luciferase reporter assay (murine H2K cells), H2K/mdx/Utro A reporter cell line
Format: cell-based
Settings: 48 h, mdx mouse H2K Utrophin A reporter cells, read-out: Activity (luciferase level relative to control); for activity at 10 µM: test compound concentration 10 μM
Method: Luciferase Reporter Assay (Murine H2K Cells)
The cell line used for the screen is an immortalized mdx mouse H2K cell line that has been stably transfected with a plasmid containing ≈5 kb fragment of the Utrophin A promoter including the first untranslated exon linked to a luciferase reporter gene.
Under conditions of low temperature and interferon containing media, the cells remain as myoblasts. These are plated into 96 well plates and cultured in the presence of compound for three days. The level of luciferase is then determined by cell lysis and reading of the light output from the expressed luciferase gene utilising a plate luminometer.
Luciferase Assay for 96 Well Plates
The H2K/mdx/Utro A reporter cell line cells were plated out into 96 well plates (Falcon 353296, white opaque) at a density of approximately 5000 cells/well in 190 μl normal growth medium. The plates were then incubated at 33° C. in the presence of 10% CO2 for 24 hrs.
Compounds were dosed by adding 10 μl of diluted compound to each well giving a final concentration of 10 μM (where a different final concentration was required, the amount of compound solution added was amended accordingly). The plates were then incubated for a further 48 hrs. Cells were then lysed in situ following the manufacture's protocols (Promega Steady-Glo Luciferase Assay System(E2520). Then counted for 10 seconds using a plate luminometer (Victor1420).
Compounds for screening were stored at −20° C. as 10 mM stocks in 100% DMSO until required.
Biological activity as assessed using the luciferase reporter assay in murine H2K cells, and the results are shown in Table 1, which also lists the concentration of the test compound solution in μM.

COc1ccc(NC(=O)c2nn(Cc3ccc(S(C)(=O)=O)cc3)c3ccccc23)cc1 [Compound 34, N-(4-methoxyphenyl)-1-(4-(methylsulfonyl)benzyl)-1H-indazole-3-carboxamide]
activity at 10 µM: 301 to 400%

CS(=O)(=O)c1ccc(Cn2nc(C(=O)Nc3ccc4c(c3)OC(F)(F)O4)c3ccccc32)cc1 [Compound 35, N-(2,2-difluorobenzo[d][1,3]dioxol-5-yl)-1-(4-(methylsulfonyl)benzyl)-1H-indazole-3-carboxamide]
activity at 10 µM: < 200%

CON(C)S(=O)(=O)c1ccc(Cn2nc(C(=O)Nc3nccs3)c3ccccc32)cc1 [Compound 36, 1-(4-(N-methoxy-N-methylsulfamoyl)benzyl)-N-(thiazol-2-yl)-1H-indazole-3-carboxamide]
activity at 10 µM: < 200%

COc1ccc(CCNC(=O)Nc2nn(Cc3cc4c(cc3Cl)OCO4)c3ccccc23)cc1 [Compound 37, 1-(1-((6-chlorobenzo[d][1,3]dioxol-5-yl)methyl)-1H-indazol-3-yl)-3-(4-methoxyphenethyl)urea]
activity at 10 µM: < 200%

NC(=O)c1ccc(NC(=O)c2nn(Cc3ccc(C(=O)N4CCOCC4)cc3)c3ccccc23)cc1 [Compound 38, N-(4-carbamoylphenyl)-1-(4-(morpholine-4-carbonyl)benzyl)-1H-indazole-3-carboxamide]
activity at 10 µM: 201 to 300%

CCN(CC)S(=O)(=O)c1ccc(Cn2nc(C(=O)Nc3ccccn3)c3ccccc32)cc1 [Compound 39, 1-(4-(N,N-diethylsulfamoyl)benzyl)-N-(pyridin-2-yl)-1H-indazole-3-carboxamide]
activity at 10 µM: < 200%

O=C(Nc1ccccc1OC(F)(F)F)Nc1nn(Cc2ccc(C(F)(F)F)cc2)c2ccccc12 [Compound 40, 1-(2-(trifluoromethoxy)phenyl)-3-(1-(4-(trifluoromethyl)benzyl)-1H-indazol-3-yl)urea]
activity at 30 µM (test compound concentration 30 μM): < 200%

CCN(CC)S(=O)(=O)c1ccc(Cn2nc(C(=O)Nc3ccc4c(c3)C(=O)N(C)C4=O)c3ccccc32)cc1 [Compound 41, 1-(4-(N,N-diethylsulfamoyl)benzyl)-N-(2-methyl-1,3-dioxoisoindolin-5-yl)-1H-indazole-3-carboxamide]
activity at 10 µM: < 200%

CC(C)(C)c1ccc(Cn2nc(C(=O)Nc3ccc4c(c3)OCO4)c3ccccc32)cc1 [Compound 42, N-(benzo[d][1,3]dioxol-5-yl)-1-(4-tert-butylbenzyl)-1H-indazole-3-carboxamide]
activity at 10 µM: > 401%

O=C(Nc1ccc(N2CCCCC2)cc1)c1nn(CCOc2ccc(F)cc2)c2ccccc12 [Compound 43, 1-(2-(4-fluorophenoxy)ethyl)-N-(4-(piperidin-1-yl)phenyl)-1H-indazole-3-carboxamide]
activity at 10 µM: < 200%

COc1cccc(OCc2ccc(Cn3nc(NC(=O)NCc4ccccc4OC)c4ccccc43)cc2)c1 [Compound 44, 1-(2-methoxybenzyl)-3-(1-(4-((3-methoxyphenoxy)methyl)benzyl)-1H-indazol-3-yl)urea]
activity at 10 µM: < 200%

O=C(Nc1ccc2c(c1)OCO2)c1nn(CCCOc2ccccc2)c2ccccc12 [Compound 45, N-(benzo[d][1,3]dioxol-5-yl)-1-(3-phenoxypropyl)-1H-indazole-3-carboxamide]
activity at 10 µM: > 401%

O=C(Nc1ccc2c(c1)OCO2)c1nn(CCOc2ccc(F)cc2)c2ccccc12 [Compound 46, N-(benzo[d][1,3]dioxol-5-yl)-1-(2-(4-fluorophenoxy)ethyl)-1H-indazole-3-carboxamide]
activity at 10 µM: < 200%

O=C(NCc1ccccc1F)Nc1nn(Cc2cc3c(cc2Cl)OCO3)c2ccccc12 [Compound 47, 1-(1-((6-chlorobenzo[d][1,3]dioxol-5-yl)methyl)-1H-indazol-3-yl)-3-(2-fluorobenzyl)urea]
activity at 10 µM: < 200%

CC(C)(C)c1ccc(Cn2nc(C(=O)Nc3ccc4c(c3)OC(F)(F)O4)c3ccccc32)cc1 [Compound 48, 1-(4-tert-butylbenzyl)-N-(2,2-difluorobenzo[d][1,3]dioxol-5-yl)-1H-indazole-3-carboxamide]
activity at 10 µM: < 200%

CON(C)S(=O)(=O)c1ccc(Cn2nc(C(=O)Nc3ccccn3)c3ccccc32)cc1 [Compound 49, 1-(4-(N-methoxy-N-methylsulfamoyl)benzyl)-N-(pyridin-2-yl)-1H-indazole-3-carboxamide]
activity at 10 µM: < 200%

O=C(Nc1ccc2c(c1)OCO2)c1nn(Cc2ccc(-c3ccccc3)cc2)c2ccccc12 [Compound 50, N-(benzo[d][1,3]dioxol-5-yl)-1-(biphenyl-4-ylmethyl)-1H-indazole-3-carboxamide]
activity at 10 µM: < 200%

Cc1cccc(NC(=O)Nc2nn(Cc3ccc(COc4ccc5c(c4)OCO5)cc3)c3ccc(C(F)(F)F)cc23)c1 [Compound 51, 1-(1-(4-((benzo[d][1,3]dioxol-5-yloxy)methyl)benzyl)-5-(trifluoromethyl)-1H-indazol-3-yl)-3-m-tolylurea]
activity at 10 µM: < 200%

COc1cc(NC(=O)Nc2nn(Cc3cc4c(cc3Cl)OCO4)c3ccccc23)cc(OC)c1 [Compound 52, 1-(1-((6-chlorobenzo[d][1,3]dioxol-5-yl)methyl)-1H-indazol-3-yl)-3-(3,5-dimethoxyphenyl)urea]
activity at 10 µM: < 200%

O=C(Nc1ccc2c(c1)CCC2)Nc1nn(Cc2ccc(C(F)(F)F)cc2)c2ccccc12 [Compound 53, 1-(2,3-dihydro-1H-inden-5-yl)-3-(1-(4-(trifluoromethyl)benzyl)-1H-indazol-3-yl)urea]
activity at 10 µM: < 200%

COc1cccc(OCc2ccc(Cn3nc(NC(=O)Nc4ccc(OC)c(OC)c4)c4ccccc43)cc2)c1 [Compound 54, 1-(3,4-dimethoxyphenyl)-3-(1-(4-((3-methoxyphenoxy)methyl)benzyl)-1H-indazol-3-yl)urea]
activity at 10 µM: < 200%

O=C(NCc1ccco1)Nc1nn(Cc2cc3c(cc2Cl)OCO3)c2ccccc12 [Compound 55, 1-(1-((6-chlorobenzo[d][1,3]dioxol-5-yl)methyl)-1H-indazol-3-yl)-3-(furan-2-ylmethyl)urea]
activity at 10 µM: < 200%

COc1ccc(NC(=O)c2nn(CCOc3ccccc3)c3ccccc23)cc1 [Compound 56, N-(4-methoxyphenyl)-1-(2-phenoxyethyl)-1H-indazole-3-carboxamide]
activity at 10 µM: < 200%

Cc1ccc(NC(=O)Nc2nn(Cc3ccc(COc4ccc5c(c4)OCO5)cc3)c3ccc(C(F)(F)F)cc23)cc1 [Compound 57, 1-(1-(4-((benzo[d][1,3]dioxol-5-yloxy)methyl)benzyl)-5-(trifluoromethyl)-1H-indazol-3-yl)-3-p-tolylurea]
activity at 10 µM: < 200%

O=C(Nc1ccc2c(c1)OCO2)c1nn(CCOc2ccccc2)c2ccccc12 [Compound 58, N-(benzo[d][1,3]dioxol-5-yl)-1-(2-phenoxyethyl)-1H-indazole-3-carboxamide]
activity at 10 µM: 201 to 300%

Cc1ccc(NC(=O)Nc2nn(Cc3ccc(C(F)(F)F)cc3)c3ccccc23)cc1 [Compound 59, 1-p-tolyl-3-(1-(4-(trifluoromethyl)benzyl)-1H-indazol-3-yl)urea]
activity at 10 µM: < 200%

CC(C)c1ccc(NC(=O)c2nn(CCOc3ccc(F)cc3)c3ccccc23)cc1 [Compound 60, 1-(2-(4-fluorophenoxy)ethyl)-N-(4-isopropylphenyl)-1H-indazole-3-carboxamide]
activity at 10 µM: < 200%

O=C(Nc1ccc(OC(F)(F)F)cc1)c1nn(Cc2ccc(C(=O)N3CCOCC3)cc2)c2ccccc12 [Compound 61, 1-(4-(morpholine-4-carbonyl)benzyl)-N-(4-(trifluoromethoxy)phenyl)-1H-indazole-3-carboxamide]
activity at 10 µM: > 401%

CC(C)c1ccc(NC(=O)c2nn(Cc3ccc(S(C)(=O)=O)cc3)c3ccccc23)cc1 [Compound 62, N-(4-isopropylphenyl)-1-(4-(methylsulfonyl)benzyl)-1H-indazole-3-carboxamide]
activity at 10 µM: 301 to 400%

O=C(Nc1ccc2c(c1)OCO2)c1nn(Cc2ccc(C(=O)N3CCOCC3)cc2)c2ccccc12 [Compound 63, N-(benzo[d][1,3]dioxol-5-yl)-1-(4-(morpholine-4-carbonyl)benzyl)-1H-indazole-3-carboxamide]
activity at 10 µM: > 401%

NC(=O)c1ccc(NC(=O)c2nn(Cc3ccc(S(=O)(=O)N4CCOCC4)cc3)c3ccccc23)cc1 [Compound 64, N-(4-carbamoylphenyl)-1-(4-(morpholinosulfonyl)benzyl)-1H-indazole-3-carboxamide]
activity at 10 µM: < 200%

COc1ccc(NC(=O)c2nn(Cc3ccc(C(C)(C)C)cc3)c3ccccc23)cc1 [Compound 65, 1-(4-tert-butylbenzyl)-N-(4-methoxyphenyl)-1H-indazole-3-carboxamide]
activity at 10 µM: 201 to 300%

C#CCN(C)S(=O)(=O)c1ccc(Cn2nc(C(=O)Nc3ccc(C(C)C)cc3)c3ccccc32)cc1 [Compound 66, N-(4-isopropylphenyl)-1-(4-(N-methyl-N-(prop-2-ynyl)sulfamoyl)benzyl)-1H-indazole-3-carboxamide]
activity at 10 µM: < 200%

O=C(Nc1ccccn1)c1nn(CCOc2ccc(F)cc2)c2ccccc12 [Compound 67, 1-(2-(4-fluorophenoxy)ethyl)-N-(pyridin-2-yl)-1H-indazole-3-carboxamide]
activity at 10 µM: < 200%
